In article PMC10578927, “An unconventional gatekeeper mutation sensitizes inositol hexakisphosphate kinases to an allosteric inhibitor” (eLife, 2023):

Experiments:
[1] = molecular target: T1, IP6K1^L210V (Homo sapiens, UniProt Q92551, L210V); assay: NMR activity assay, [13C6]-InsP6 to 5PP-InsP5, with ATP-regenerating system; assay type: biochemical
T1 construct: made in house; host or cells: E. coli Arctic Express
From the text: (§1) The gatekeeper mutants L210G and L210A of IP6K1 were generated by site-directed mutagenesis and the enzymes were recombinantly expressed, analogous to the WT kinase, as MBP-fusion proteins. To assess their catalytic activity, we used an NMR assay that harnesses fully ^13C-labeled InsP6 as a substrate and enables direct product readout of 5PP-InsP5 (Figure 2b and Figure 2—figure supplement 1; [Puschmann et al., 2019]; [Harmel et al., 2019]). […] Likewise, IP6K2 suffered a drastic decline in substrate turnover upon gatekeeper mutation to glycine (Figure 2—figure supplement 2).
(§2) The NMR assay for IP6K activity was performed similarly as described before ([Harmel et al., 2019]) with slight alterations. Enzyme assays were performed in D2O in a total volume of 150 µl containing 20 mM 4-(2-hydroxyethyl)-1-piperazineethanesulfonic acid (HEPES) pH* 6.8, 50 mM NaCl, 6 mM MgCl2, 1 mM ATP, 0.2 mg/ml BSA, 1 mM DTT, 5 mM creatine phosphate and 1 U/ml creatine kinase (ATP-regenerating system) and 50 nM kinase if not otherwise stated. HEPES, NaCl, and BSA were prepared as buffer A and DTT and creatine phosphate as buffer B in D2O and were adjusted to pH* 6.8, respectively. If applicable, inhibitor was added as a DMSO-d6 stock in a twofold dilution series at a final DMSO concentration of 1% if not otherwise mentioned. Otherwise, DMSO-d6 was added to the same percentage. The samples were equilibrated at 37°C for 3 min and the reaction initiated by adding 100 µM [^13C6]-InsP6.

[2] = molecular target: T2, IP6K1^wt (Homo sapiens, UniProt Q92551); assay: as above; assay type: biochemical; settings: 1 mM ATP, ATP-regenerating system
T2 construct: made in house; host or cells: E. coli Arctic Express
From the text: as §1, §2

[3] = molecular target: T1, IP6K1^L210V; assay: Michaelis–Menten and Lineweaver–Burk kinetics (NMR); assay type: biochemical; settings: versus ATP, two inhibitor concentrations
Experimental: Kinetic assays were performed in D2O in a total volume of 500 µl containing the same buffer components for IP6K and IP6KA constructs as stated for the NMR activity assays above. […] If applicable, inhibitor was added as a DMSO-d6 stock at a final DMSO concentration of 1%. Otherwise, DMSO-d6 was added to the same percentage. The samples were equilibrated at 37°C for 5 min and the reaction initiated by adding 100 µM [^13C6]-InsP6. The reaction time was adjusted so that conversion would not exceed 20% to remain in the linear range for initial velocity measurements. The reaction was quenched with 38 µl 700 mM EDTA pH* 8.0 and transferred into an NMR tube before being measured on a Bruker […] 600 PLUS with an NMR pulse program developed previously ([Harmel et al., 2019]). Initial velocities were calculated by dividing the amount of generated product by the product of reaction time in seconds and mass of the kinase in mg.

[4] = test system: HCT116 cells; assay: Reverse transcription qPCR of 45S pre-rRNA transcript levels; assay type: cell-based; settings: HCT116 cells treated 5 hr, RT-qPCR, preliminary experiment
Experimental: Total RNA was extracted using the RNeasy kit from QIAGEN. cDNA was generated using Thermo Fisher Scientific SuperScript III Reverse Transcriptase and 2 µg RNA following the vendor’s protocol. […] The cDNA was diluted 10-fold before conducting qPCR using SYBR Green PCR Master Mix and a StepOnePlus RT PCR System. The difference in transcript levels was calculated using the ΔΔct method and technical triplicates.

[5] = molecular target: T3, MBP-HsIP6K1^wt (Homo sapiens, UniProt Q92551); assay: Hydrogen deuterium exchange mass spectrometry (HDX-MS), apo vs inhibitor-bound; assay type: binding; settings: IP6K1^wt apo vs inhibitor-bound
T3 construct: made in house; host or cells: E. coli Arctic Express
Experimental: (§3) Prior to initiation of deuterium exchange reactions, enzymes were incubated with inhibitor or DMSO blank for 15 min at RT (final concentration: 3 µM enzyme, 50 µM inhibitor, in a buffer consisting of 20 mM HEPES 7.4, 50 mM NaCl, 1% DMSO). From this mixture, 5 µl was taken per sample and 45 µl of deuterated buffer was added to initiate deuterium exchange (final concentrations: 300 nM enzyme, 5 µM inhibitor; final buffer concentration: 20 mM HEPES 7.4, 50 mM NaCl, 85.63% deuterium, 0.1% DMSO). Reactions were carried out in triplicate at 3 (3, 30, and 300 s) or four different time points (0.3, 3, 30, and 300 s) and were quenched by the addition of 20 µl of ice-cold quench buffer (final concentration: 0.57 M GuaHCL, 0.86% formic acid). Samples were snap-frozen in liquid nitrogen and then stored at −80°C until mass analysis.
(§4) Samples were rapidly thawed and injected onto an ultra-performance liquid chromatography (UPLC) at 2°C. […] Peptides were identified using data-dependent acquisition methods following tandem MS/MS experiments. MS/MS datasets were analyzed using MaxQuant against a database of purified proteins and known contaminants with an false discovery rate (FDR) cut-off of 1%.
(§5) Deuterium incorporation of peptides was automatically calculated using HDExaminer Software (Sierra Analytics). […]

[6] = molecular target: T4, MBP-HsIP6K1^L210V (Homo sapiens, UniProt Q92551, L210V); assay: as above; assay type: binding; settings: IP6K1^L210V apo vs bound to FMP-201300
T4 construct: made in house; host or cells: E. coli Arctic Express
Experimental: as §3, §4, §5

[7] = molecular target: T2, IP6K1^wt; assay: High-throughput screen, reverse kinase reaction (5PP-InsP5 + ADP), Kinase-Glo luminescence; assay type: biochemical; settings: dose-dependent reconfirmation

T1 sequence (Q92551 whole entry L210V): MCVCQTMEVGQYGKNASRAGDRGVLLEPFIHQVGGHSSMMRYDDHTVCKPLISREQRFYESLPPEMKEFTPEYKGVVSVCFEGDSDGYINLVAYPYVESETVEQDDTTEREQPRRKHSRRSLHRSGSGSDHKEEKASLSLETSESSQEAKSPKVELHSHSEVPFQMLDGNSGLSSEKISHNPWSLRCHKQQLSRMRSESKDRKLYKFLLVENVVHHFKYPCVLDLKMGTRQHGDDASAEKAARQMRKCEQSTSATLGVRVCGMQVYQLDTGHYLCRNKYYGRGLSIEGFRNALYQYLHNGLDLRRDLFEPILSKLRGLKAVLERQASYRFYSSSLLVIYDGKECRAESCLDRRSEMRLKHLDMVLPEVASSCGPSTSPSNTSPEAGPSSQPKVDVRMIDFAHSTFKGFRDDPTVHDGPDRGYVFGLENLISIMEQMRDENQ
T2 sequence (Q92551 whole entry): as the sequence (Q92551 whole entry L210V) above, with V210L counted along it
T3 sequence (Q92551 whole entry): as the sequence (Q92551 whole entry L210V) above, with V210L counted along it
T4 sequence (Q92551 whole entry L210V): as the sequence (Q92551 whole entry L210V) above

O=C(O)c1ccc2c(c1)C(=O)N(c1ccc(-c3nc4ccc(N5C(=O)c6ccc(C(=O)O)cc6C5=O)cc4[nH]3)cc1)C2=O [FMP-201300]
IC50 ([1]; 100 μM InsP6): 75 nM | IC50 ([1]; 500 μM InsP6): 87 nM | difference in IC50 values measured at 100 and 500 µM InsP6 ([1]; IP6K1^L210V): negligible | IC50 ([1]; NMR assay, 1 mM ATP, ATP-regenerating system): 114 nM | IC50 [2]: 810 nM | mechanism of inhibition (Lineweaver–Burk) [3]: allosteric mechanism | reduction of ribosomal RNA synthesis (45S pre-rRNA transcript levels) [4]: able to recapitulate this recently reported phenotype | change in deuterium incorporation upon inhibitor binding [5]: no significant changes in deuterium incorporation were observed | change in deuterium exchange rates upon inhibitor binding [6]: Major decreases in exchange rates were observed in proximity to the ATP-binding site | IC50 [7]: 17000 nM
